# From patent publication US20210323918A1, “COMPOSITIONS AND METHODS FOR SUPPRESSING AND/OR TREATING A GROWTH RELATED DISEASE AND/OR A CLINICAL CONDITION THEREOF” (CK Biotech Inc., priority 2018, published 2021)
# Tests used:
# ATDC5 cells = test: Wnt/β-catenin signaling, proliferation and differentiation in ATDC5 chondrogenic cells; format: cell-based, mouse
# Description: Cell culture and reagents. The mouse chondrogenic cell line, ATDC5, was obtained from the RIKEN Cell Batik. The human juvenile costal chondrocyte cell line, C28/I2, was provided by Dr. W. U. Kim (Catholic University, Korea). HEK293-TOP cells (HEK293 cells containing the chromosomally incorporated TOPFlash gene) were provided by Dr. S. Oh (Kuk Min University, Korea). ATDCS cells were maintained in DMEM/F12 (1:1) (Gibco, Grand Island, N.Y.) supplemented with 5% FBS (Gibco). To induce hypertrophic differentiation, ATDC5 cells were incubated with insulin-transferrin-sodium selenite (ITS) supplement (Gibco) in three-dimensional alginate beads for 3 days, as previously described. See e.g., Kawasaki Y. et al. (2008), Phosphorylation of GSK-3beta by cGMP-dependent protein kinase II promotes hypertrophic differentiation of murine chondrocytes. J CLIN INVEST 118: 2506-2515. C28/I2 and HEK293-TOP cells were maintained in DMEM (Gibco) containing 10% FBS. All chemicals were dissolved in dimethyl sulfoxide (DMSO; Sigma-Aldrich, St Louis, Mo.) for the in vitro studies. For E2 (17β-estradiol; Sigma-Aldrich) treatment, cells were cultured in phenol red-free DMEM/F12 with 5% charcoal-stripped FBS for 24 hours followed by serum-free medium for 24 hours before the experiment. The PTD-DBMP was synthesized by Peptide 2.0 Inc (Chantilly, Va.).
# Immunocytochemistry. ATDCS or C28/I2 cells were seeded on glass coverslip in 12-well culture plates. The cells were washed with PBS and fixed with 4% PFA at room temperature for 15 minutes. After permeabilization with 0.1% triton-X-100 for 15 minutes and blocking with 5% BSA for 1 hour, the cells were incubated with primary antibodies specific for β-catenin (1:100) or CXXC5 l (1:200) at 4° C. overnight. The cells were washed in PBS and incubated with Alexa Fluor 488 or Alexa Fluor 555 secondary antibodies (1:200) at room temperature for 1 hour. Cell nuclei were counterstained with DAPI for 10 minutes and the stained samples were examined under a LSM700 META microscope using 405-, 488-, or 543-nm excitation wavelengths. For BrdU assay, cultured cells were incubated with BrdU solution (25 μM) overnight, followed by immunocytochemical staining with antibody against BrdU (1:100).
# Immunoblot analyses. […] Protein samples were separated on a 8-12% sodium dodecylsulfate polyacrylamide gel electrophoresis (SDS-PAGE) and transferred to a nitrocellulose membrane (Whatman). Immunoblotting was performed with the following primary antibodies: anti-β-catenin (Santa Cruz Biotechnology, Santa Cruz, Calif., sc-7199; 1:3,000), anti-CXXC5 (lab made;1:200) anti-Myc tag (MBL, Aichi, Japan, M192-3; 1:1,000), anti-FLAG (Sigma-Aldrich, F7425; 1:1,000), anti-p-GSK3β (S9; Cell Signaling Technology, Danvers, Mass., 9336S; 1:1,000), anti-COL2A1 (Santa Cruz Biotechnology, sc-28887; 1:500), anti-RUNX2 (Abcam, ab23981; 1:500), anti-COLIOAI (Cosmo Bio, LSL-LB-0092; 1:500), anti-MMP13 (Santa Cruz Biotechnology, sc-30073; 1:500), anti-ERK (Santa Cruz Biotechnology, sc-94; 1:3,000) and anti-α-tubulin (Cell Signaling Technology, 3873S; 1:20,000). Samples were then incubated with horseradish-peroxidase-conjugated anti-mouse (Cell Signaling Technology, 7076; 1:3,000), anti-rabbit (Bio-Rad, 1706515; 1:3,000), or anti-goat (Santa Cruz Biotechnology; sc-2020; 1:3,000) secondary antibodies. Protein bands were visualized with enhanced chemiluminescence (ECL; Amersham Bioscience, Piscataway, N.J.) using a luminescent image analyzer, LAS-3000 (Fujifilm, Tokyo, Japan). Immunoblot bands were analyzed using Multi-Gauge V3.0 software (Fujifilm). Points of interest (POIs) from immunoblot bands were marked and quantified using densitometry, and the background signals were subtracted from respective immunoblot signals. Relative densitometry values were presented as the intensity ratios of each protein to loading control protein (α-tubulin or ERK).
# Immunoprecipitation. Immunoprecipitation was performed as previously described (Kim et al, 2015). […]
# [1] = In vivo pharmacokinetics of KY19382; design: species or system Sprague-Dawley (SD) rats; details: rat
# Method: In vivo pharmacokinetics of KY19382. Animal studies were approved by the Institutional Animal Care and use committee at KRIBB. Briefly, specific pathogen-free male Sprague-Dawley (SD) rats (10 weeks old, body weight 298-315 g), purchased from Koatech Co. (Kyeonggi, Republic of Korea), were given a single dose of KY19382 intravenously (iv, 1 mg/kg, n=3) or intraperitoneal (ip, 5 mg/kg, n=3). […] A 100 μl aliquot of each plasma sample was prepared, and three volumes of ice-cold acetonitrile containing carbamazepine (internal standard) were added. The mixture was centrifuged at 910 g for 10 min, and the supernatant was subjected to LC-MS/MS analysis. Pharmacokinetic parameters were calculated by standard noncompartmental analysis of plasma concentration-time profiles using Kinetica 4.4.1 (Thermo Fisher Scientific, Inc., Woburn, Mass., USA). The areas under the plasma concentration-time curves (AUC) were calculated by the linear-trapezoidal method. Systemic plasma clearance (CLP) was calculated as follows: CLP=dose/AUCinf. […] Volume of distribution at steady state (VSS) was calculated as follows: VSS=dose×AUMCinf/(AUCinf)2, where AUMCinf is the area under the first moment of the plasma concentration-time curve extrapolated to infinity Bioavailability (F) was calculated as follows: F (%)=(AUCip/AUCiv)(doseiv/doseip)×100.
# [2] = ATDC5 cells, 0.01 or 0.1 μM, 4 hours, FIG. 12
# [3] = male, Sprague-Dawley, plasma, IP, 5 mg/kg, mean
# [4] = male, Sprague-Dawley, plasma, IV, 1 mg/kg, mean
compound,measurement,setting,value
"CO/N=C1/C(=C2/C(=O)Nc3cc(Cl)c(Cl)cc32)Nc2ccccc21 [KY19382, 5,6-dichloroindirubin-3′-methoxime]",number of BrdU-positive ATDC5 cells,"ATDC5 cells; 0.01 or 0.1 μM, 48 hours, FIG. 11A",enhanced number
same,"CXXC5-DVL interaction, immunoprecipitation","ATDC5 cells; ATDC5 cells, 0.1 μM, 4 hours, FIG. 4F",interruption of the CXXC5-DVL interaction
same,nuclear translocation of β-catenin,"ATDC5 cells; ATDC5 cells, 0.1 μM, 48 hours, FIG. 4G",elevated
same,mRNA levels of chondrogenic markers,"ATDC5 cells; ATDC5 cells, 0.1 μM, 3 days, alginate beads, FIG. 11B",upregulated
same,"expression levels of Wnt/β-catenin target genes (Fosl1, Wisp1, Axin2)",ATDC5 cells; [2],markedly increased
same,"off-target effects: 19 other genes that respond to other pathways, mRNA",ATDC5 cells; [2],not significantly altered
same,"β-catenin level with inactivation of GSK3β, immunoblot","ATDC5 cells; ATDC5 cells, 24 hours, FIG. 4E",increment of β-catenin
same,CL,"[1]; IP, 5 mg/kg, mean",7.83 mL/min/kg
same,bioavailability,"[1]; male, Sprague-Dawley, plasma, intraperitoneal, IP, 5 mg/kg vs IV, 1 mg/kg",16.7%
same,AUC(0-t),[1]; [3],6560 ng·h/mL
same,Cmax,[1]; [3],463 ng/mL
same,Tmax,[1]; [3],1 h
same,half-life,[1]; [3],16.2 h
same,AUC(0-t),[1]; [4],7830 ng·h/mL
same,clearance,[1]; [4],2 mL/min/kg
same,half-life,[1]; [4],3.33 h
same,Vd,"[1]; male, Sprague-Dawley, plasma, IV, 1 mg/kg, mean, read-out: Vss",0.33 L/kg
